# Source: ChEMBL document CHEMBL5154839, “Discovery of a selective and covalent small-molecule inhibitor of BFL-1 protein that induces robust apoptosis in cancer cells” (Eur J Med Chem, 2022)
# What was measured:
# Bcl-2-related protein A1 [1] = biological target: T1, Bcl-2-related protein A1 (Homo sapiens, UniProt Q16548); experiment: Displacement of fluorescein tagged BID BH3 peptide from His-tagged recombinant BFL-1 (1 to 151 residues) (unknown origin) expressed in Escherichia coli BL21 (DE3) assessed as inhibition constant incubated for 24 hrs by fluorescence polarization-based competitive binding assay
# T1 sequence (Q16548 whole entry): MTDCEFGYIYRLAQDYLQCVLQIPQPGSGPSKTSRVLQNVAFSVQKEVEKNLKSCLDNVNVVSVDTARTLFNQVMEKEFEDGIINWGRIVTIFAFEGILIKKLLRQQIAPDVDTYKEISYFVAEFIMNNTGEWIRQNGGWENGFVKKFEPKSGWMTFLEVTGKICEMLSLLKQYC
# Bcl-2-like protein 2 = Bcl-2-like protein 2 (Homo sapiens, UniProt Q92843); experiment: Displacement of fluorescent-labeled BID-BH3 peptide from human BCL-W expressed in Escherichia coli BL21 (DE3) assessed as inhibition constant by fluorescence polarization-based competitive binding assay
# Chain of Bcl-2-like protein 2 (Q92843 whole entry): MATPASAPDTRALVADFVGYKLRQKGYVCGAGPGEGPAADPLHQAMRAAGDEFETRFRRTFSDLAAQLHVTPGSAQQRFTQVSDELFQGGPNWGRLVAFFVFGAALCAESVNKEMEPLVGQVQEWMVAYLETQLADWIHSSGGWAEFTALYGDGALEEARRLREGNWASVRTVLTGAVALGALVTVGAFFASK
# Bcl-2-like protein 1 = Bcl-2-like protein 1 (Homo sapiens, UniProt Q07817); experiment: Displacement of fluorescent-labeled BID-BH3 peptide from human BCL-xL expressed in Escherichia coli BL21 (DE3) assessed as inhibition constant by fluorescence polarization-based competitive binding assay
# Chain of Bcl-2-like protein 1 (Q07817 whole entry, the tested form may be a part): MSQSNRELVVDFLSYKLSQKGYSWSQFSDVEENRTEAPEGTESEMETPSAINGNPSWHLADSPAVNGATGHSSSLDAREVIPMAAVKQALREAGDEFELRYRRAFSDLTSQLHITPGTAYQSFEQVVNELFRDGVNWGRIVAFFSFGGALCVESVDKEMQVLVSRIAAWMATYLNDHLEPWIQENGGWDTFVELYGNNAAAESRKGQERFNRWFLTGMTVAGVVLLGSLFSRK
# Bcl-2-related protein A1 [2] = biological target: T1, Bcl-2-related protein A1; experiment: Displacement of fluorescent-labeled BID-BH3 peptide from His-tagged human BFL-1 (1 to 151 residues) expressed in Escherichia coli BL21 (DE3) assessed as inhibition constant by fluorescence polarization-based competitive binding assay
# [3] = biological target: Apoptosis regulator Bcl-2 (Homo sapiens, UniProt P10415); experiment: Displacement of fluorescent-labeled BID-BH3 peptide from human BCL-2 expressed in Escherichia coli BL21 (DE3) assessed as inhibition constant by fluorescence polarization-based competitive binding assay
# Chain of Apoptosis regulator Bcl-2 (P10415 whole entry): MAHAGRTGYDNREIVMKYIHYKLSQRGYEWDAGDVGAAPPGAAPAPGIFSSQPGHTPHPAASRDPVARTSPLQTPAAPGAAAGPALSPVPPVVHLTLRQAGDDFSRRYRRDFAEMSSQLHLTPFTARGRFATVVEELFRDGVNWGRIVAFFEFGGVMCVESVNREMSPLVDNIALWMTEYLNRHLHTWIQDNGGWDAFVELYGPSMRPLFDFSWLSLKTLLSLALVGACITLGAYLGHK
# MM1.S = experiment: Growth inhibition of human MM1.S cells incubated for 4 days by WST assay; format: functional, cell-based; details: 96 h
# [4] = Displacement of fluorescein tagged BID BH3 peptide from His-tagged recombinant BFL-1 (1 to 151 residues) C55A mutant (unknown origin) expressed in Escherichia coli BL21 (DE3) assessed as inhibition constant incubated for 24 hrs by fluorescence polarization-based competitive binding assay; design: species or system Homo sapiens
# U-937 [5] = experiment: Growth inhibition of human U-937 cells incubated for 4 days by WST assay; format: functional, cell-based; details: U-937, 96 h
# Kasumi 1 = experiment: Growth inhibition of human Kasumi 1 cells incubated for 4 days by WST assay; format: functional, cell-based; details: Kasumi 1, 96 h
# K562 = experiment: Growth inhibition of human K562 cells incubated for 4 days by WST assay; format: functional, cell-based; details: K562, 96 h
# MV4-11 = experiment: Growth inhibition of human MV4-11 cells incubated for 4 days by WST assay; format: functional, cell-based; details: MV4-11, 96 h
# RPMI-8226 = experiment: Growth inhibition of human RPMI-8226 cells incubated for 4 days by WST assay; format: functional, cell-based; details: RPMI-8226, 96 h
# HL-60 = experiment: Growth inhibition of human HL-60 cells incubated for 4 days by WST assay; format: functional, cell-based; details: HL-60, 96 h
# Raji = experiment: Growth inhibition of human Raji cells incubated for 4 days by WST assay; format: functional, cell-based; details: 96 h
# U-937 [6] = experiment: Induction of apoptosis in human U-937 cells assessed as early apoptotic cells at 60 uM measured after 4 hrs by Annexin PI staining based flow cytometry method (reference value: 1.95 %); format: functional
# U-937 [7] = experiment: Induction of apoptosis in human U-937 cells assessed as early apoptotic cells at 10 uM measured after 4 hrs by Annexin PI staining based flow cytometry method (reference value: 1.95 %); format: functional
# U-937 [8] = experiment: Induction of apoptosis in human U-937 cells assessed as late apoptotic cells at 10 uM measured after 4 hrs by Annexin PI staining based flow cytometry method (reference value: 1.62 %); format: functional
# U-937 [9] = experiment: Induction of apoptosis in human U-937 cells assessed as necrotic cells at 10 uM measured after 4 hrs by Annexin PI staining based flow cytometry method (reference value: 0.00 %); format: functional
# U-937 [10] = experiment: Induction of apoptosis in human U-937 cells assessed as early apoptotic cells at 20 uM measured after 4 hrs by Annexin PI staining based flow cytometry method (reference value: 1.95 %); format: functional
# U-937 [11] = experiment: Induction of apoptosis in human U-937 cells assessed as late apoptotic cells at 20 uM measured after 4 hrs by Annexin PI staining based flow cytometry method (reference value: 1.62 %); format: functional
# U-937 [12] = experiment: Induction of apoptosis in human U-937 cells assessed as necrotic cells at 20 uM measured after 4 hrs by Annexin PI staining based flow cytometry method (reference value: 0.00 %); format: functional
# U-937 [13] = experiment: Induction of apoptosis in human U-937 cells assessed as early apoptotic cells at 40 uM measured after 4 hrs by Annexin PI staining based flow cytometry method (reference value: 1.95 %); format: functional
# U-937 [14] = experiment: Induction of apoptosis in human U-937 cells assessed as late apoptotic cells at 40 uM measured after 4 hrs by Annexin PI staining based flow cytometry method (reference value: 1.62 %); format: functional
# U-937 [15] = experiment: Induction of apoptosis in human U-937 cells assessed as necrotic cells at 40 uM measured after 4 hrs by Annexin PI staining based flow cytometry method (reference value: 0.00 %); format: functional
# U-937 [16] = experiment: Induction of apoptosis in human U-937 cells assessed as late apoptotic cells at 60 uM measured after 4 hrs by Annexin PI staining based flow cytometry method (reference value: 1.62 %); format: functional
# U-937 [17] = experiment: Induction of apoptosis in human U-937 cells assessed as necrotic cells at 60 uM measured after 4 hrs by Annexin PI staining based flow cytometry method (reference value: 0.00 %); format: functional
# [18] = biological target: Induced myeloid leukemia cell differentiation protein Mcl-1 (Homo sapiens, UniProt Q07820); experiment: Displacement of fluorescent-labeled BID-BH3 peptide from His-tagged human MCL-1 expressed in Escherichia coli BL21 (DE3) assessed as inhibition constant by fluorescence polarization-based competitive binding assay
# Chain of Induced myeloid leukemia cell differentiation protein Mcl-1 (Q07820 whole entry): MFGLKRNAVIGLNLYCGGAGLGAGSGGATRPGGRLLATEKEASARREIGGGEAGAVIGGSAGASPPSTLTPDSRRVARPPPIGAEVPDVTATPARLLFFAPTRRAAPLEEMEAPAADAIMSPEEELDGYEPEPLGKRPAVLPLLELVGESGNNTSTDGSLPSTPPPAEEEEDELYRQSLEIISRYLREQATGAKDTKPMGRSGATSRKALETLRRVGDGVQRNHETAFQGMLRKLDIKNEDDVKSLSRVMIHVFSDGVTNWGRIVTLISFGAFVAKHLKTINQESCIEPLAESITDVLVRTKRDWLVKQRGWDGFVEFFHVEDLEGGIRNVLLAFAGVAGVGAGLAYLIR
# Bcl-2-related protein A1 [19] = biological target: T1, Bcl-2-related protein A1
# Description: Inhibition of His-tagged human BFL-1(1 to 151 residues) expressed in Escherichia coli BL21 (DE3) by fluorescence polarization-based binding assay
compound,measurement,setting,value
C=CC(=O)N1CCN(c2c3ccc(-c4cccc(F)c4)cc3nn2Cc2ccc(C#N)cc2)CC1,Ki,Bcl-2-related protein A1 [1],3.23 µM
C=CC(=O)N1CCN(c2c3ccc(-c4cccc(F)c4)cc3nn2Cc2cccc(Cl)c2)CC1,Ki,Bcl-2-related protein A1 [1],> 100 µM
CN1CCN(C2=C(Cl)C(=O)N(c3ccc(Cl)c(Cl)c3)C2=O)CC1,Ki,Bcl-2-like protein 2,12.5 µM
same,Ki,Bcl-2-like protein 1,50 µM
same,Ki,Bcl-2-related protein A1 [2],0.4 µM
same,Ki,[3],12.5 µM
COc1cccc(Cn2nc3cc(-c4cccc(F)c4)ccc3c2N2CCNCC2)c1,Ki,Bcl-2-related protein A1 [1],3.01 µM
C=CC(=O)N1CCN(c2c3ccc(-c4cccc(F)c4)cc3nn2CC)CC1,Ki,Bcl-2-related protein A1 [1],2.85 µM
C=CC(=O)N1CCN(c2c3ccc(-c4cccc(F)c4)cc3nn2Cc2cccc(C(=O)O)c2)CC1,Ki,Bcl-2-related protein A1 [1],> 100 µM
CSc1ccc(C(Nc2ccccn2)c2c(C)[nH]c3ccccc23)cc1 (stereo not given),Ki,Bcl-2-related protein A1 [2],2.9 µM
same,Ki,[3],12.9 µM
C=CC(=O)N1CCN(c2c3ccc(-c4cccc(F)c4)cc3nn2Cc2ccc(O)cc2)CC1,Ki,Bcl-2-related protein A1 [1],10.2 µM
C=CC(=O)N1CCN(c2c3ccc(-c4cccc(F)c4)cc3nn2Cc2cccc(C#N)c2)CC1,Ki,Bcl-2-related protein A1 [1],3.34 µM
C=CC(=O)N1CCN(c2c3ccc(-c4cccc(F)c4)cc3nn2Cc2ccc(C(=O)O)cc2)CC1,Ki,Bcl-2-related protein A1 [1],> 100 µM
C=CC(=O)N1CCN(c2c3ccc(-c4cccc(F)c4)cc3nn2Cc2ccc(OC)cc2)CC1,Ki,Bcl-2-related protein A1 [1],> 100 µM
CC(C)(C)c1ccc(CN2CCN(S(=O)(=O)Nc3ccc(SCCc4ccccc4)cc3C(=O)O)CC2)cc1,IC50,MM1.S,32.6 µM
same,Ki,[4],2.28 µM
same,IC50,U-937 [5],19.9 µM
same,IC50,Kasumi 1,20.3 µM
same,IC50,K562,18.9 µM
same,IC50,MV4-11,20.8 µM
same,IC50,RPMI-8226,21.3 µM
same,IC50,HL-60,32.8 µM
same,IC50,Raji,51.5 µM
C=CC(=O)N1CCN(c2c3ccc(-c4cccc(F)c4)cc3nn2CCC(C)(C)C)CC1,Ki,Bcl-2-related protein A1 [1],> 100 µM
C=CC(=O)N1CCN(c2c3ccc(-c4cccc(F)c4)cc3nn2Cc2cccc(O)c2)CC1,Ki,Bcl-2-related protein A1 [1],18.4 µM
C=CC(=O)N1CCN(c2c3ccc(-c4cccc(F)c4)cc3nn2CCCOC)CC1,Ki,Bcl-2-related protein A1 [1],> 100 µM
CCC(=O)N1CCN(c2c3ccc(-c4cccc(F)c4)cc3nn2Cc2ccccc2)CC1,IC50,MM1.S,16.8 µM
same,Ki,Bcl-2-related protein A1 [1],24.1 µM
same,Ki,[4],> 200 µM
same,IC50,U-937 [5],9.3 µM
same,Activity,U-937 [6],3.65%
same,Activity,U-937 [7],1.96%
same,Activity,U-937 [8],2.02%
same,Activity,U-937 [9],0.16%
same,Activity,U-937 [10],2.79%
same,Activity,U-937 [11],1.8%
same,Activity,U-937 [12],0.05%
same,Activity,U-937 [13],3.14%
same,Activity,U-937 [14],1.57%
same,Activity,U-937 [15],0.03%
same,Activity,U-937 [16],2.06%
same,Activity,U-937 [17],0.03%
same,IC50,Kasumi 1,7.1 µM
same,IC50,K562,10.4 µM
same,IC50,MV4-11,8.9 µM
same,IC50,RPMI-8226,11.8 µM
same,IC50,HL-60,28.9 µM
same,IC50,Raji,48.2 µM
C=CC(=O)N1CCN(c2c3ccc(-c4cccc(F)c4)cc3nn2CCC)CC1,Ki,Bcl-2-related protein A1 [1],1.13 µM
CC1(C)CCC(CN2CCN(c3ccc(C(=O)NS(=O)(=O)c4ccc(NCC5CCOCC5)c([N+](=O)[O-])c4)c(Oc4cnc5[nH]ccc5c4)c3)CC2)=C(c2ccc(Cl)cc2)C1 [VENETOCLAX],Ki,[18],> 0.444 µM
CC(=O)NC(Cc1c[nH]c2ccccc12)C(=O)NCCSSCCN(C)C (stereo not given),IC50,Bcl-2-related protein A1 [19],1.3 µM
C=CC(=O)N1CCN(c2c3ccc(-c4cccc(F)c4)cc3nn2CCCN(C)C)CC1,Ki,Bcl-2-related protein A1 [1],18.1 µM
C=CC(=O)N1CCN(c2c3ccc(-c4cccc(F)c4)cc3nn2CCCO)CC1,Ki,Bcl-2-related protein A1 [1],2.41 µM
C=CC(=O)N1CCN(c2c3ccc(-c4cccc(F)c4)cc3nn2Cc2ccc(Cl)cc2)CC1,Ki,Bcl-2-related protein A1 [1],> 100 µM
